Values after ≈ are worked out from the molar mass of the structure shown. Values joined by “and” are separate entries in the source; they are usually repeats but may differ in a detail not shown here. Equal entries are not always repeated. Blank lines part the entries; values can stand above or below the molecule they belong to.
Experiments:
Assay in all cases: ≥ marks a high value that may be exact or a test limit, other limits are often not marked, values filed in µg/mL are converted to µM
[1] = system: Streptococcus mutans
[2] = system: Escherichia coli K-12
[3] = system: Staphylococcus aureus USA 300
[4] = system: Micrococcus luteus ATCC 9341
[5] = system: Micrococcus luteus
[6] = system: Escherichia coli ATCC 25922
[7] = system: Staphylococcus aureus NCTC 8325
[8] = system: Candida albicans ATCC 90028
[9] = system: Pseudomonas aeruginosa Ps4
[10] = system: Staphylococcus aureus ATCC 25923
[11] = system: Escherichia coli
[12] = system: Pseudomonas aeruginosa ATCC 27853
[13] = system: Salmonella enterica subsp. enterica serovar Typhimurium ATCC 14028
[14] = system: Bacillus subtilis
[15] = system: Enterococcus faecalis ATCC 29212
[16] = system: Klebsiella pneumoniae ATCC 13883
[17] = system: Streptococcus pyogenes ATCC 19615

SMILES: CC[C@H](C)[C@H](NC(=O)[C@H](CCC(N)=O)NC(=O)[C@H](CC(N)=O)NC(=O)[C@H](Cc1ccccc1)NC(=O)[C@@H](NC(=O)[C@H](CCC(N)=O)NC(=O)[C@H](CC(C)C)NC(=O)[C@H](CC(C)C)NC(=O)[C@@H](N)CCCCN)[C@@H](C)O)C(=O)N[C@@H](Cc1ccccc1)C(=O)N[C@@H](CCCN=C(N)N)C(=O)O [KLLQTFNQIFR]
MIC [1]: ≥ 88.8 µM

SMILES: CC[C@H](C)[C@H](N)C(=O)N[C@@H](CC(C)C)C(=O)N1CCC[C@H]1C(=O)N[C@@H](Cc1c[nH]c2ccccc12)C(=O)N[C@@H](CCCCN)C(=O)N[C@@H](Cc1c[nH]c2ccccc12)C(=O)N1CCC[C@H]1C(=O)N[C@@H](Cc1c[nH]c2ccccc12)C(=O)N[C@@H](Cc1c[nH]c2ccccc12)C(=O)N1CCC[C@H]1C(N)=O [ILPWKWPWWP]
MIC [4]: 1.6 µM (≈ 2.25 µg/mL)

SMILES: NC(=O)[C@H](Cc1ccccc1)NC(=O)[C@H](CCCN=C(N)N)NC(=O)[C@H](CCCN=C(N)N)NC(=O)[C@H](Cc1c[nH]c2ccccc12)NC(=O)[C@H](Cc1c[nH]c2ccccc12)NC(=O)[C@H](CCCN=C(N)N)NC(=O)[C@@H](N)CCCN=C(N)N [RRWWRRF]
MIC [1]: 14.6 µM (≈ 17 µg/mL)

SMILES: CC[C@H](C)[C@H](NC(=O)[C@H](CCCCN)NC(=O)[C@H](CCSC)NC(=O)[C@H](CC(C)C)NC(=O)CNC(=O)CNC(=O)[C@H](CC(C)C)NC(=O)[C@@H](N)Cc1ccccc1)C(=O)N[C@H](C(=O)N1CCC[C@H]1C(=O)N[C@@H](C)C(=O)N[C@@H](C)C(=O)N[C@@H](Cc1ccccc1)C(=O)N[C@H]1CSSC[C@@H](C(=O)O)NC(=O)[C@H](CCCCN)NC(=O)[C@H](CCCCN)NC(=O)[C@H]([C@@H](C)O)NC(=O)[C@H](C(C)C)NC(=O)[C@H](C)NC1=O)[C@@H](C)CC [FLGGLMKIIPAAFCAVTKKC]
MIC [6]: 9 µM (≈ 19 µg/mL) | MIC [7]: 18 µM (≈ 38 µg/mL) | MIC [8]: ≥ 70 µM

SMILES: CC[C@H](C)[C@H](NC(=O)[C@H](CCCN=C(N)N)NC(=O)[C@@H](NC(=O)[C@H](CC(N)=O)NC(=O)[C@H](CCCN=C(N)N)NC(=O)[C@H](CCC(N)=O)NC(=O)[C@H](Cc1c[nH]c2ccccc12)NC(=O)[C@H](Cc1ccccc1)NC(=O)[C@@H](N)Cc1ccccc1)[C@@H](C)CC)C(=O)N[C@@H](CCCN=C(N)N)C(=O)N[C@@H](CCCN=C(N)N)C(N)=O [FFWQRNIRIRR]
MIC [9]: ≥ 157 µM

SMILES: CC[C@H](C)[C@H](NC(=O)[C@H](CC(N)=O)NC(=O)[C@H](CO)NC(=O)[C@H](CCC(N)=O)NC(=O)[C@H](Cc1c[nH]c2ccccc12)NC(=O)[C@@H](N)Cc1ccccc1)C(=O)N[C@@H](CCCN=C(N)N)C(=O)N[C@@H](CCCCN)C(=O)N[C@H](C(=O)N[C@@H](CCCN=C(N)N)C(N)=O)C(C)C [FWQSNIRKVR]
MIC [9]: ≥ 187 µM

SMILES: CC[C@H](C)[C@H](N)C(=O)N[C@@H](CC(C)C)C(=O)N1CCC[C@H]1C(=O)N[C@@H](Cc1c[nH]c2ccccc12)C(=O)N[C@@H](CCCCN)C(=O)N[C@@H](Cc1c[nH]c2ccccc12)C(=O)N1CCC[C@H]1C(=O)N[C@@H](Cc1c[nH]c2ccccc12)C(N)=O [ILPWKWPW]
MIC [4]: 6.3 µM (≈ 7.08 µg/mL)

SMILES: CC(C)[C@H](NC(=O)CNC(=O)[C@H](CCCN=C(N)N)NC(=O)[C@H](Cc1cnc[nH]1)NC(=O)[C@H](Cc1c[nH]c2ccccc12)NC(=O)[C@H](Cc1ccccc1)NC(=O)[C@H](Cc1cnc[nH]1)NC(=O)[C@H](Cc1ccc(O)cc1)NC(=O)[C@@H](N)Cc1ccc(O)cc1)C(=O)N[C@H](C(=O)N[C@@H](CCCCN)C(=O)N[C@@H](CCCN=C(N)N)C(=O)O)[C@@H](C)O [YYHFWHRGVTKR]
MIC [10]: 30 µM (≈ 49.5 µg/mL) | MIC [11]: 40 µM (≈ 66 µg/mL) | MIC [12]: 40 µM (≈ 66 µg/mL) | MIC [13]: 40 µM (≈ 66 µg/mL) | MIC [14]: ≥ 40 µM | MIC [15]: 30 µM (≈ 49.5 µg/mL) | MIC [16]: ≥ 40 µM | MIC [17]: ≥ 70 µM

Further lines, results first:

MIC [1]: ≥ 178 µM
SMILES: CC[C@H](C)[C@H](NC(=O)[C@@H](N)CCCN=C(N)N)C(=O)N[C@@H](CC(C)C)C(=O)N[C@@H](CCCCN)C(=O)N[C@@H](CCC(=O)O)C(=O)N[C@@H](CC(C)C)C(=O)N[C@@H](CCCCN)C(=O)N[C@@H](CC(N)=O)C(=O)N[C@@H](CC(C)C)C(=O)N[C@@H](Cc1ccccc1)C(=O)N[C@@H](CCCCN)C(=O)O [RILKELKNLFK]

MIC [2]: 15 µM (≈ 30.2 µg/mL) | MIC [3]: 7.5 µM and 3.1 µM
SMILES: CC[C@H](C)[C@H](NC(=O)[C@H](C)NC(=O)[C@H](CCCCN)NC(=O)[C@H](Cc1ccccc1)NC(=O)CN)C(=O)N[C@H](C(=O)N[C@@H](CCC(N)=O)C(=O)N[C@@H](CCCN=C(N)N)C(=O)N[C@H](C(=O)N[C@@H](CCCCN)C(=O)N[C@@H](CC(=O)O)C(=O)N[C@@H](Cc1ccccc1)C(=O)N[C@@H](CC(C)C)C(=O)N[C@@H](CCCN=C(N)N)C(=O)N[C@@H](CC(N)=O)C(=O)N[C@@H](CC(C)C)C(=O)N[C@H](C(N)=O)C(C)C)[C@@H](C)CC)C(C)C [GFKAIVQRIKDFLRNLV]

MIC [5]: 20.3 µM (≈ 50 µg/mL)
SMILES: CC[C@H](C)[C@H](NC(=O)[C@H](CO)NC(=O)[C@H](CO)NC(=O)[C@@H](NC(=O)[C@H](CC(C)C)NC(=O)CN)C(C)C)C(=O)NCC(=O)N[C@@H](CCCN=C(N)N)C(=O)N[C@@H](C)C(=O)N[C@@H](CC(C)C)C(=O)NCC(=O)NCC(=O)N[C@@H](CC(C)C)C(=O)N[C@@H](CC(C)C)C(=O)N[C@@H](C)C(=O)N[C@@H](CC(=O)O)C(=O)N[C@H](C(=O)N[C@H](C(=O)N[C@@H](CCCCN)C(=O)N[C@@H](CO)C(=O)N[C@@H](CCCCN)C(=O)N[C@@H](CCC(=O)O)C(=O)N[C@@H](CCC(N)=O)C(=O)N1CCC[C@H]1C(=O)N[C@@H](C)C(=O)O)C(C)C)C(C)C [GLVSSIGRALGGLLADVVKSKEQPA]

MIC [6]: 60 µM (≈ 107 µg/mL) | MIC [7]: ≥ 130 µM | MIC [8]: ≥ 200 µM
SMILES: CC[C@H](C)[C@H](NC(=O)[C@H](CCCCN)NC(=O)[C@H](CC(C)C)NC(=O)[C@H](CC(C)C)NC(=O)[C@@H]1CCCN1C(=O)CNC(=O)[C@H](CC(C)C)NC(=O)[C@H](CC(C)C)NC(=O)CN)C(=O)N[C@@H](C)C(=O)N[C@@H](C)C(=O)N[C@@H](CCCCN)C(=O)N[C@H](C(=O)NCC(=O)N[C@@H](CO)C(=O)N[C@@H](CC(N)=O)C(=O)N[C@@H](CC(C)C)C(=O)N[C@@H](CC(C)C)C(=O)O)C(C)C [GLLGPLLKIAAKVGSNLL]

MIC [1]: 3.76 µM (≈ 11.3 µg/mL)
SMILES: CC[C@H](C)[C@H](NC(=O)CNC(=O)CNC(=O)CNC(=O)[C@H](Cc1ccccc1)NC(=O)[C@H](Cc1c[nH]c2ccccc12)NC(=O)[C@H](CCCN=C(N)N)NC(=O)[C@H](Cc1c[nH]c2ccccc12)NC(=O)[C@H](CCCN=C(N)N)NC(=O)[C@H](Cc1c[nH]c2ccccc12)NC(=O)[C@@H](N)CCCN=C(N)N)C(=O)N[C@@H](CCCCN)C(=O)N[C@@H](CCC(N)=O)C(=O)N[C@@H](CC(C)C)C(=O)N[C@@H](CC(C)C)C(=O)N[C@@H](Cc1cnc[nH]1)C(=O)N[C@@H](Cc1ccccc1)C(=O)N[C@@H](Cc1ccccc1)C(=O)N[C@@H](CCC(N)=O)C(=O)N[C@@H](Cc1c[nH]c2ccccc12)C(=O)N[C@@H](CCCN=C(N)N)C(=O)N[C@@H](Cc1ccccc1)C(N)=O [RWRWRWFGGGIKQLLHFFQWRF]

MIC [6]: 18 µM (≈ 41.7 µg/mL) | MIC [7]: ≥ 100 µM | MIC [8]: ≥ 100 µM
SMILES: CSCC[C@H](NC(=O)CNC(=O)CNC(=O)[C@H](CCCCN)NC(=O)[C@H](C)NC(=O)[C@H](Cc1ccccc1)NC(=O)[C@H](CCCCN)NC(=O)[C@H](CCCCN)NC(=O)[C@H](CC(C)C)NC(=O)[C@H](C)NC(=O)[C@H](CC(=O)O)NC(=O)[C@H](CC(C)C)NC(=O)[C@H](Cc1ccccc1)NC(=O)[C@@H](NC(=O)CN)C(C)C)C(=O)N[C@@H](CC(N)=O)C(=O)N[C@@H](C)C(=O)N[C@H](C(=O)N[C@@H](CC(C)C)C(=O)N[C@@H](CC(N)=O)C(=O)N1CCC[C@H]1C(=O)N[C@@H](CCCCN)C(=O)O)C(C)C [GVFLDALKKFAKGGMNAVLNPK]

MIC [6]: 37.5 µM (≈ 63.3 µg/mL) | MIC [7]: ≥ 150 µM
SMILES: CC[C@H](C)[C@H](NC(=O)[C@H](CCCCN)NC(=O)[C@H](C)NC(=O)[C@H](CC(C)C)NC(=O)[C@H](CC(=O)O)NC(=O)[C@@H](NC(=O)[C@H](C)N)C(C)C)C(=O)N[C@@H](C)C(=O)N[C@@H](CC(N)=O)C(=O)N[C@@H](CCCCN)C(=O)N[C@H](C(=O)N[C@@H](CC(C)C)C(=O)N[C@@H](CO)C(=O)N[C@@H](CO)C(=O)N[C@@H](CC(C)C)C(=O)N[C@@H](Cc1ccccc1)C(N)=O)C(C)C [AVDLAKIANKVLSSLF]

From DBAASP
